Source: US10080748B2, “Use of flap inhibitors to reduce neuroinflammation mediated injury in the central nervous system” (Bioscience Pharma Partners, LLC, priority 2014, dated 2018)

Legend:
[1] = test system: rats subjected to FPI (TBI model); assay: T2-weighted MRI brain swelling (edema) 72 hours after TBI (rat FPI); type: in vivo
Experimental: Craniotomy and lateral fluid percussion injury (FPI) were performed using a previously validated and published procedure. Farias S, et al. J. Neurotraum, 26, 1977-1986, 2009; Frey L. C. et al. J. Neurosci. Methods 177, 267-272, 2009. Throughout the specification animals subjected to this protocol are referred to as having a TBI since this treatment protocol is a TBI model. Briefly, rats were anesthetized with 3-5% isoflurane, isosol, VEDCO Inc., St. Joseph, Mo., via nose cone and mounted in a stereotaxic head frame. A 3 millimeter (mm) craniotomy was created and centered at 3 mm caudal to bregma and 3.5 mm left of the sagittal suture, keeping the exposed dura intact. One steel support screw was embedded in the skull on the contralateral side. […] Moistened food pellets were provided after injury, and all animals were monitored daily for well-being and weight changes. […]
For each rat, five slices, 1.2 mm thick, spanning the entire area of injury were used to calculate FPI-related brain swelling. The diameter of the injured, ipsilateral hemisphere was measured from midline to the widest point of the cortex (Fiji/ImageJ, NIH). The difference between the ipsilateral (ipsi) and contralateral (contra) hemisphere diameters was then calculated and normalized to the diameter of the contralateral hemisphere using the formula: {(diameter Ipsi−diameter Contra)/diameter Contra}×100 […]

[2] = test system: rats subjected to FPI (TBI model); assay: Gd-enhanced T1-weighted MRI, BBB disruption 72 hours after TBI (rat FPI); type: in vivo
Experimental: Craniotomy and lateral fluid percussion injury (FPI) were performed using a previously validated and published procedure. Farias S, et al. J. Neurotraum, 26, 1977-1986, 2009; Frey L. C. et al. J. Neurosci. Methods 177, 267-272, 2009. Throughout the specification animals subjected to this protocol are referred to as having a TBI since this treatment protocol is a TBI model. Briefly, rats were anesthetized with 3-5% isoflurane, isosol, VEDCO Inc., St. Joseph, Mo., via nose cone and mounted in a stereotaxic head frame. A 3 millimeter (mm) craniotomy was created and centered at 3 mm caudal to bregma and 3.5 mm left of the sagittal suture, keeping the exposed dura intact. One steel support screw was embedded in the skull on the contralateral side. A Luer-Lock hub with an inside diameter of 3.5 mm was centered over the craniotomy and bonded to the skull with cyanoacrylate adhesive and capped. Dental acrylic, Snap, Parka, Inc., Edgewood, N.J., was poured around the huh and screw. After the acrylic hardened antibiotic ointment was applied around the cap and the animals were returned to their cages. The next day, approximately 15-20 hours later, animals were anesthetized with isoflurane in an induction chamber, immediately connected to the FPI apparatus, and received a 20 millisecond (ms) pulse of pressurized sterile saline at 2.7 atmospheres (atm) of pressure to simulate a moderate severity impact on the intact dural surface through the craniotomy before awakening from anesthesia. […] All animals received a subcutaneous injection of the analgesic, buprenorphine, 0.05 milligram/kilogram (mg/kg) Buprenex, prior to craniotomy, and subsequent injections every 12 hours for two days. Moistened food pellets were provided after injury, and all animals were monitored daily for well-being and weight changes. […]
The effect of leukotrienes on TBI-related BBB disruption was assessed using Gd-enhanced T1-weighted MRI 72 hours after TBI in rats. […]

[3] = test system: human whole blood; assay: Human whole blood bioassay of LTB4, 5-HETE and AA production; type: cell-based; conditions: human whole blood; data not shown
Text: The results are for the effects of these two FLAP inhibitors on LTB4 production and 5-HETE production. It is known that indole-acetic acid FLAP inhibitors like MK-886, MK-591 display high plasma protein binding. Thus, the potencies of these FLAP inhibitors for blocking leukotrienes in vivo are about 100 fold higher than the affinity of the inhibitors for FLAP binding. The inventors developed a bioassay that closely predicts the in vivo potency of FLAP inhibitors using human whole blood. Briefly, whole blood is incubated with a calcium ionophore like […] or zymosan in the absence or presence of increasing concentrations of a FLAP inhibitor. After incubation at 37° C. for 30 minutes, the samples are centrifuged and the plasma supernatant is subjected to reverse phase liquid chromatography coupled to tandem mass spectrometry to quantify levels of LTB4, 5-HETE, and AA production. Drug IC50 values are determined by non-linear regression analysis (GraphPad Prism).). […] As FLAP inhibitors are poorly water soluble drugs, the inventors have shown that such hydrophobic drugs can be formulated in a carrier comprising one or more vegetable oils, such as olive oil, and phosphatidylserine that are found on the Generally Accepted as Safe (GRAS) list and that such drugs can then be rapidly delivered and targeted to the brain and upper spinal cord. Hanson L R, et al, Drug Delivery 19(3):149-54, 2012.

Question: Which normalized brain swelling ([1]; 30 minutes pre-TBI) does the source give for CC(C)c1ccc2c(c1)c(SC(C)(C)C)c(CC(C)(C)C(=O)O)n2Cc1ccc(Cl)cc1 [MK-886, 1-[(4-Chlorophenyl)methyl]-3-[(1,1-dimethylethyl)thio]-α,α-dimethyl-5-(1-methylethyl)-1H-Indole-2-propanoic acid] here?
Answer: 4.12+/−0.08%

Question: And the normalized brain swelling ([1]; 60 minutes post-TBI)?
Answer: 8.98+/−1.0%

Question: What about the Gd extravasation ([2]; 15 min post-injury) of the same compound?
Answer: no effect

Question: What about the Gd extravasation ([2]; 30 min pre-injury) of the same compound?
Answer: no effect

Question: And the Gd extravasation ([2]; 60 min post-injury)?
Answer: no effect

Question: What about the AA production [3] of the same compound?
Answer: neither of the FLAP inhibitors effected AA production
